For data set [1], the system named is mosquito, biting fly, tick. In words: repellent behaviour of C12 fatty acid on treated skin. The settings on record: insect will land but not bite on treated skin. In kind it is in vivo.
A short description of data set [2]: crystallization / phase stability of fatty acids in the MCT composition. In kind it is physicochemical. On the procedure: The first issue was one of phase stability, i.e., with higher levels of C12 fatty acid, the fatty acid precipitates out of the MCT matrix when essential oils are also present, leaving just the essential oils and the MCT carrier in solution.
The MCT as a dilutant at high enough percentage by weight in the composition prevents undesirable crystallization down to about 45-50° F. (with only C10 fatty acid, the composition is stable to about 12% concentration in the formula and with only C12 fatty acid, the composition is stable up to about 7%). It was also determined that the combination of either C8 or C10 with the C12 in a ratio of 1:4 or greater results in no undesirable crystallization.
A 100% substitution of the MCT with these yielded a clear product at cooler temperatures. […] Other co-solvents recognized by the present disclosure as useful in preventing crystallization of fatty acids from the composition include alcohols such as methanol, ethanol, propanol, and isopropanol. However, as indicated earlier, these alcohols are drying to the skin and should be avoided, if at all possible, in skin-care type repellent formulas.

Where [3] appears, read: 100% substitution of the MCT, cooler temperatures.

In the case of `CCCCCCCCCCCC(=O)O` [C12 fatty acid, lauric acid], the type of repellency entry in data set [1] was “close-proximity or contact repellent”. Moreover, the “concentration in the formula up to which the composition is stable (no crystallization)” value in data set [2] (only this fatty acid, in MCT as dilutant) is “about 7%”. For the same compound, the “solubility in MCTs” value in data set [2] (without essential oils) is “completely soluble”.

For `CCCCCCCCCCCCCC(=O)OC(C)C` [isopropyl myristate], the “effect of co-solvent on crystallization when added to the composition” value in data set [2] is reported as “limit crystallization”. Moreover, the “appearance after substitution of the MCT by the co-solvent” value is reported as “significant benefit but not to the total clarity” in data set [2] (25% substitution level) and “clear product” in data set [2] (setting [3]).

As to `CCCCCCCCCC(=O)OC` [methyl decanoate], the “effect of co-solvent on crystallization when added to the composition” value in data set [2] was “limit crystallization”. Moreover, the entries for the “appearance after substitution of the MCT by the co-solvent” value in data set [2] (25% substitution level) and in data set [2] (setting [3]) were “significant benefit but not to the total clarity” and “clear product”, respectively.

These data come from US20230134377A1, “INSECT-REPELLENT PERSONAL-CARE COMPOSITION” (priority 2021, published 2023).
